The test system of assay [1] is HK insertion duplication mutant of R6x. Nature of the assay: Phenotypes of the mutants: lysis, HK mutant. In kind it is cell-based, S. pneumoniae. The protocol: (§1) Bacterial strains and growth conditions: The parental strain of S. pneumoniae used in these studies was R6x [Tiraby et al., Proc. Natl. Acad. Sci. USA., 70:3541-3545 (1973)], a derivative of the unencapsulated Rockefeller strain R36A [Avery et al., J. Ex. Med., 79:137-158 (1944)]. Pneumococci were routinely grown on tryptic soy agar (TSA, Difco) supplemented with sheep blood to a final concentration of 3% (v/v). For growth in liquid culture, the bacteria were grown in a semi-synthetic casein hydrolysate medium supplemented with yeast extract (C+Y, [Lacks et al., Biochem. Biophys. Acta., 39:508-517 (1960)]). For the selection and maintenance of pneumococci containing chromosomally integrated plasmids, bacteria were grown in the presence of 1 μg/ml erythomycin and/or 250 μg/ml kanamycin.
(§2) Construction of mutations: Insertion duplication mutagenesis was carried out using PCR to generate gene fragments for homologous recombination proximal to the amino terminus of Orf W1, HK or RR as follows:
HK: 411 bp gene fragment spanning residues 279 (EcoR1 site) to 690 (BamH1 site) of SEQ ID NO:13.
(§3) Phenotypes of the mutants: The mutants were assessed for various physiological functions characteristic of pneumococci. This included lysis by penicillin, vancomycin, and the detergent deoxycholate (DOC). Other capabilities tested included ability to undergo natural DNA transformation (Transform) and expression of the LytA protein as assessed by Western blot. All mutants grew at the normal 30-40 minute doubling time and formed the classical diplococcal morphology.

The subject of assay [2] is RR insertion duplication mutant of R6x. Description: Phenotypes of the mutants: lysis, RR mutant. The format is cell-based, S. pneumoniae. How it is done: as §1, §2
RR: 371 bp gene fragment spanning residues 142 (EcoR1 site) to 513 (BamH1 site) of SEQ ID NO:15.
as §3

The test system of another assay is clinical isolate A144. Description: Cell viability (CFU/ml) of clinical isolate A144 one hour after addition. The format is cell-based, pneumococcus. Particulars: 10×MIC penicillin, 10×MIC vancomycin or 0.4 mM peptide. The text has this:
Tolerance to penicillin occurs in bacteria that fail to trigger autolysins in response to the drug. […] This is a mechanism of resistance to these drugs and is a serious emerging medical problem. […] However, one pneumococcal strain that fails to lyse and dies slowly in response to both penicillin and vancomycin is the clinical isolate A144. This combination of traits makes A144 recalcitrant to therapy. FIG. 8 compares the activity of penicillin, vancomycin, and the peptide against a classical sensitive strain, R6, and the tolerant strain A144. […] In contrast, strain A144 loses only 0.5 logs of viability in the same time period for all three therapies. […] Thereafter the bacteria grew more slowly than untreated controls.

Assay [3] deals with Orf W1 insertion duplication mutant of R6x. Nature of the assay: Phenotypes of the mutants: lysis, Orf W1 mutant. In kind it is cell-based, S. pneumoniae. How it is done: as §1, §2
OrfW1: 435 bp gene fragment spanning residues 473 (EcoR1 site) to 908 (BamH1 site) of SEQ ID NO:21.
as §3

Assay [4] concerns clinical isolate F79 (mutations in HK and ABC transporter genes). Description: Lysis of clinical isolate F79 cells. The format is cell-based, pneumococcus. Particulars: 10×MIC penicillin and/or 0.5 mM peptide. The protocol:
(§4) FIGS. 11A-11B show the effects of 10×MIC of penicillin and/or 0.5 mM of the peptide having the amino acid sequence of SEQ ID NO:2 on the lysis of clinical isolate F79 cells (FIG. 11A) and HK mutant VanS cells (FIG. 11B).
(§5) F79 is a natural isolate of pneumococcus with mutations in the HK and the ABC transporter genes as determined by SSCP (see Example 11). This strain is tolerant to penicillin and vancomycin.

Assay [5] deals with loss of function mutants of the ABC transporter and RR/HK. Nature of the assay: Tolerance of loss of function mutants in ABC transporter and RR/HK to antibiotics. The format is cell-based, S. pneumoniae. Particulars: all 3 mutants; growth inhibitory concentrations. An excerpt:
As described in Example 6, using insertion duplication mutagenesis, loss of function mutations were obtained in each of the 3 open reading frames of the ABC transporter and each of the two parts of the RR/HK. […] These parallel phenotypes further implicate these topographically close genes in a common pathway.
Vancomycin is the only antibiotic that maintains efficacy against many strains of highly antibiotic resistant bacteria, such as staphylococci, enterococci and pneumococci. Escape from antibiotic activity of vancomycin has been detected in rare staphylococci and enterococci but not in pneumococci as yet. […] Infect. Dis. J., 12:196-200 (1993); Marton et al., J. Infect. Dis., 163:542-8 (1991); and Bradley et al., Pediatr. Infect. Dis., 14:1037-1041(1995)]. […] If they created a phenotype which was corrected by exogenous peptide, they may participate in the biological activity of the peptide. For instance, the ABC transporter may transport the peptide and the HK may serve as an extracellular receptor for the peptide which then changes the behavior of the bacteria (i.e. killing) via a RR signal.

The subject of the next assay is pneumococcal strain R6. Description: Cell growth curves (OD 620 nm) of R6 cultures with or without test reagents. The format is cell-based, Streptococcus pneumoniae. Particulars: for ability to inhibit R6 growth (FIG. 5): 100 μM peptide added to growing R6 at OD 620 nm of 0.1. How it is done: Cell growth curves were performed in the presence or absence of the test reagents as specified. In short, samples were prepared as follows: 1 ml of a pneumococcus culture was placed into 10 ml of prewarmed Semisynthetic (C+Y) medium. The optical density (OD) of the bacteria was monitored at 620 nm until an OD of approximately 0.1 was reached. At this point the test reagents were administered to the samples. The cells were cultured for up to 11 hours at 37° Celsius, and the OD at 620 nm was monitored every hour. A decrease in OD 620 is indicative of cell lysis, an increase is indicative of bacterial growth. No change in optical density indicates growth inhibition.
The peptide having amino acid sequence SEQ ID NO:2 was chemically synthesized and tested for growth inhibiting, killing and lytic activity in Streptococcus pneumoniae cultures. To characterize the antibacterial activity of the peptide, pneumococcal strain R6 which is sensitive to penicillin was exposed to 0.1 mM of the peptide having the amino acid sequence of SEQ ID NO:2 at an optical density of 0.01 (bacterial density of 3×10^6 cfu/ml). Bacterial growth as measured by optical density was followed for 11 hours and viability was assessed by plating on blood agar. […] Four hours after the start of the experiment, the control strain grew from 3×10^6 to 1.2×10^7 cfu/ml. In contrast, four hours after addition of the peptide, the viable bacterial number decreased from 3×10^6 to 3×10^4 CFU/ml (10^3-fold lower than the control).
The fact that the peptide is active in the range below 1 μg/ml places the potency of its antibacterial effect in the same range as conventional antibiotics.
R6 with no peptide was the control and underwent exponential growth.

Assay [6] relates to pneumococcus R6, non-growing. Nature of the assay: Lysis of R6 cells under starvation conditions (medium lacking lysine). The format is cell-based. Particulars: 10×MIC penicillin and/or 0.5 mM peptide. The text has this: When bacteria grow slowly or stop growing due to nutrient deprivation, they become tolerant to antibiotics of all classes. […] This prolongs the course of antibiotics needed to treat these infections. For instance, many weeks of therapy are required to treat endocarditis and osteomyelitis secondary to slowly growing bacteria. An in vitro example of phenotypic tolerance is shown in FIG. 10 where pneumococcus R6 has been transferred at time 0 to a medium lacking the essential amino acid lysine. Penicillin was added 5 min after the transfer. […] This same response is seen with the peptide.

The test system of the next assay is HK mutant strain Van S. Description: Lysis of HK mutant VanS cells. In kind it is cell-based, pneumococcus. Particulars: 10×MIC penicillin and/or 0.5 mM peptide. The protocol: as §4, §5

`CN[C@H](CC(C)C)C(=O)N[C@H]1C(=O)N[C@@H](CC(N)=O)C(=O)N[C@H]2C(=O)N[C@H]3C(=O)N[C@H](C(=O)N[C@H](C(=O)O)c4cc(O)cc(O)c4-c4cc3ccc4O)[C@H](O)c3ccc(c(Cl)c3)Oc3cc2cc(c3O[C@@H]2O[C@H](CO)[C@@H](O)[C@H](O)[C@H]2O[C@H]2C[C@](C)(N)[C@H](O)[C@H](C)O2)Oc2ccc(cc2Cl)[C@H]1O` [Vancomycin, vancomycin]: the entries for the “Lysis by” value in assay [1], in [2] and in assay [3] were “tolerant”, “sensitive” and “tolerant”, respectively. For the same molecule, in the assay with clinical isolate A144, the “loss of viability of A144 within one hour” value came out at 0.5 logs. Further, the “lysis / tolerance of F79” value in assay [4] was “tolerant”. Also, the “lysis and death / tolerance of the mutants” value in assay [5] is given as “exhibited tolerance”.

For “LADKRPARDYN (listed as Streptococcus pneumoniae) [Peptide 5]”, in the assay on pneumococcal strain R6, the “ability to inhibit R6 growth (FIG. 5)” value is listed as “Exponential growth equal to untreated bacteria”.

Turning to “MEFMRKEFHNVLSSGQLLADKRPARDYN (listed as Streptococcus pneumoniae) [SEQ ID NO:12]”, in the assay with pneumococcal strain R6, the “antibacterial activity against R6” value is “no antibacterial activity”.

As to MRKEFHNVLSAGQLLADKRPARDYN [Peptide 3], the “ability to inhibit R6 growth (FIG. 5)” value with pneumococcal strain R6 is recorded as “greatly enhanced antibacterial effect”.

“MRKEFHNVLSSGQL (listed as Streptococcus pneumoniae) [Peptide 4]”: the “ability to inhibit R6 growth (FIG. 5)” value in the assay with pneumococcal strain R6 is on record as “Exponential growth equal to untreated bacteria”.

MRKEFHNVLSSGQLLADKRPARDAN [Peptide 2]: in the assay with pneumococcal strain R6, the “ability to inhibit R6 growth (FIG. 5)” value is “greatly decreased anti-bacterial activity”.

“MRKEFHNVLSSGQLLADKRPARDYNRK (listed as Streptococcus pneumoniae) [Peptide 6]”: the “ability to inhibit R6 growth (FIG. 5)” value with pneumococcal strain R6 was “the same effect”.

With deoxycholate [DOC], the “Lysis by” value in assay [1] is given as “yes”; in assay [2], “yes”; in [3], “no”.

For penicillin, in assay [6], the “lysis response of non-growing R6” value was “only a minimal response”. For the same molecule, the “viability of non-growing R6” value in [6] is given as “unaffected”. Besides, the “Lysis by” value in assay [1] is reported as “tolerant”; in [2], “sensitive”; in [3], “tolerant”. Besides, the “lysis / tolerance of strain Van S” value in the assay with HK mutant strain Van S is on record as “tolerance”. The “loss of viability of A144 within one hour” value with clinical isolate A144 is reported as 0.5 logs. For the same molecule, the “lysis of growing R6” value in the assay on pneumococcal strain R6 (10×MIC, normal growth) is given as “lyses R6 within one hour”. Also, the “lysis / tolerance of F79” value in assay [4] is recorded as “tolerant”. Further, in assay [5], the “lysis and death / tolerance of the mutants” value was “failed to lyse and die”.

Source of the values: US6448224B1, “Antibiotics and methods of using the same” (priority 1998, dated 2002).
